{"source": "patent US20060265028A1", "about": "“Hair growth” (QLT INC., priority 2003, published 2006)", "key": {"[1]": {"system": "human males with type II or III Vertex alopecia", "assay": "Terminal hair counts 3 months after single topical PDT treatment, compared to baseline", "type": "in vivo", "details": "3 months after treatment vs baseline, 5 subjects", "text": "As used herein, the term “hair growth” refers to an increase in number of terminal hairs present. Terminal hair counts can be conducted in a number of ways. For example, the terminal hair can be counted by trained and validated technicians who perform a computer-assisted count on macrophotographs. In brief, a target area on the scalp is chosen, the hair clipped and the scalp permanently marked with a single dot tattoo in the center in order to facilitate the exact positioning at each subsequent photo session. The macrophotography is performed using a preset camera with a macro lens and a stand that provides a constant reproduction ratio and electronic flashes that reproducibly illuminate the area to photograph. The images are taken in triplicate, centering the camera using the tattoo and the color slide films are processed at a central facility. The quality of the images is assessed and large transparencies are made of the best images. The terminal hairs on the target circle of the transparencies are then counted by the trained technicians.\nA total of 10 subjects were treated. All subjects were human males over 18 years of age and had type II or III Vertex alopecia, rated according to the modified Hamilton-Norwood scale. […]\nThe efficacy was assessed by hair counts 3 months after the treatment and compared to baseline counts."}, "[2]": {"assay": "Safety: monitoring all adverse events during and after the PDT treatment", "type": "in vivo, human", "details": "single topical QLT0074 ointment 0.2% w/w plus 50 or 75 J/cm^2 red light; 10 subjects", "protocol": "A total of 10 subjects were treated. All subjects were human males over 18 years of age and had type II or III Vertex alopecia, rated according to the modified Hamilton-Norwood scale.\nAll subjects received a single application of topical QLT0074 ointment 0.2% weight in weight (w/w) to two of three circular test sites on the vertex area of the scalp. The amount of ointment applied to each test site was approximately 224 mg (about 0.44mg of photosensitizer per test site). After 2 hours the excess drug was removed and red light (LED's—690nm) was administered to two of the three sites. The other test site served as a control with no drug or light administration.\nTwo light dose cohorts (50 and 75 J/cm^2) were investigated with each cohort having 5 subjects.\nSafety was assessed by monitoring all adverse events during and after the treatment."}, "[3]": {"details": "topical 0.5% hematoporphyrin and UVA three times a week for eight weeks; first week of treatment; cited from earlier work"}, "alopecia areata": {"system": "alopecia areata", "details": "cited from earlier work"}}}
{"smiles": "C=Cc1c(C)c2cc3nc(cc4[nH]c(cc5nc(cc1[nH]2)C(C)=C5CCC(=O)OCCO)c(CCC(=O)OCCO)c4C)[C@@]1(C)C3=CC=C(C(=O)OC)[C@H]1C(=O)OC", "note": "[QLT0074]", "values": [{"measurement": "% change in terminal hair count", "setting": "[1]; 50 J/cm^2 red light (690nm) 2 hours after topical QLT0074 ointment 0.2% w/w", "result": "+8%"}, {"measurement": "% change in terminal hair count", "setting": "[1]; 75 J/cm^2 red light (690nm) 2 hours after topical QLT0074 ointment 0.2% w/w", "result": "+4%"}, {"measurement": "serious adverse events", "setting": "[2]", "result": "No serious adverse events were reported"}]}
{"smiles": "CC1=C(CCC(=O)O)c2cc3[nH]c(cc4nc(cc5[nH]c(cc1n2)c(C)c5C(C)O)C(C)=C4C(C)O)c(C)c3CCC(=O)O", "note": "(stereo not drawn) [hematoporphyrin]", "values": [{"measurement": "skin reactions at treated sites", "setting": "[3]", "result": "significant erythema and mild scaling followed by hyperpigmentation"}]}
{"smiles": "COc1c2occc2c(OC)c2c(=O)cc(C)oc12", "note": "[khellin]", "values": [{"measurement": "patients treated successfully", "setting": "alopecia areata; 2% khellin and UVA, alopecia areata", "result": "5 of the 10"}, {"measurement": "phototoxicity", "setting": "alopecia areata; khellin and UVA", "result": "did not cause phototoxicity"}]}
